Test results taken from US9170264B2, “Methods of monitoring for adherence to aripiprazole therapy” (Ameritox, Ltd., priority 2013, dated 2015).
“And” between values parts separate entries of the source, which are not always exact repeats. Identical values can stand only once.

Columns and labels:
[1] = Levels of OPC3373, aripiprazole and dehydroaripiprazole in urine of humans taking chronic doses of aripiprazole (Example 1); assay type: in vivo, human; details: for Levels in Human Urine: individual specimens, chronic doses of aripiprazole, LOQ OPC3373 100 ng/mL, dehydroaripiprazole 5 ng/mL, aripiprazole 5 ng/mL
Method: (§1) The concentration of any analyte described in the present disclosure may be determined (e.g., measured) by any suitable quantification method. In some embodiments, the concentration of an analyte (e.g., aripiprazole, dehydroaripiprazole, and/or OPC3373) is measured by tandem liquid chromatography-mass spectrometry-mass spectrometry (“LC/MSMS”). In some embodiments, the concentration of an analyte (e.g., aripiprazole, dehydroaripiprazole, and/or OPC3373) is measured by tandem liquid chromatography-High Resolution mass spectrometry (Time of Flight (TOF)) (“LC/MS(TOF)”). In some embodiments, the concentration of an analyte (e.g., aripiprazole, dehydroaripiprazole, and/or OPC3373) is measured by direct injection mass spectrometry-mass spectrometry ([…]) e.g., such systems as RapidFire™ (Agilent) or Laser Diode Thermal Desorption (“LDTD”) (Phytronix) to introduce samples into the mass spectrometer; either triple quadrupole (i.e., MSMS) or exact mass (i.e., Time of Flight, Orbitrap, etc.) instruments
The appearance of OPC3373 (4-[(2-Oxo-1,2,3,4-tetrahydro-7-quinolinyl)oxy]butanoic acid, BMS-337047) as the major aripiprazole metabolite in the urine can be used to help monitor patient adherence to aripiprazole therapy. While analysis of both aripiprazole and the plasma metabolite, dehydroaripiprazole, can be used to monitor patient adherence, the relatively low levels of these molecules in the urine frequently results in “false negatives” in patients known to be taking aripiprazole.

[2] = Urine testing for compliance over 5 days, patients prescribed 5 mg/day Abilify (Example 7); assay type: in vivo, human; parameters: Aripiprazole (urine test result) / Dehydroaripiprazole (urine test result): unit not given here; details: for Aripiprazole (urine test result) / Dehydroaripiprazole (urine test result): human urine, patients prescribed 5 mg/day Abilify
Method: as §1
The urine of 25 patients who were prescribed 5 mg of Abilify® (aripiprazole) was tested for compliance over 5 days (Table 11). […] Without OPC3373, only 47% were determined to be positive with patients just being below the reporting cutoffs for both aripiprazole and dehydroaripiprazole. Thus, use of OPC3373 as a urine biomarker at this lower dose adds a great deal of value to compliance monitoring for Abilify®.

[3] = Urine testing for compliance over 5 days, patients prescribed 15 mg/day Abilify (Example 5); assay type: in vivo, human; parameters: urine concentration: unit not given here; details: for urine concentration, Avg / urine concentration, Max / urine concentration, Min: n 69 samples
Method: as §1
The urine of 23 patients who were prescribed 15 mg of Abilify® (aripiprazole) was tested for compliance over 5 days (Table 7). […] Without OPC3373, only 78% were determined to be positive with patients just being below the reporting cutoffs for both aripiprazole and dehydroaripiprazole. […] Thus, use of OPC3373 as a urine biomarker at this dose adds value to compliance monitoring for Abilify®.

[4] = cited from earlier work
[5] = Urine testing of aripiprazole positive patients in a controlled study, LC/MSMS (Example 2); assay type: in vivo, human; details: 5 mg q day, individual samples, LLOQ aripiprazole 5, dehydroaripiprazole 5, OPC3373 25 ng/mL
Method: as §1
An additional set of aripiprazole positive patients was monitored for levels of aripiprazole, dehyrdroaripiprazole, and OPC3373 in their urine.
Dehydroaripiprazole: 5 ng/mL
These analyses were completed using LC/MSMS.

[6] = Urine testing for compliance over 5 days, patients prescribed 2 mg/day Abilify (Example 8); assay type: in vivo, human; parameters: Urine concentration, individual subject: unit not given here
Method: as §1
The urine of 15 patients who were prescribed 2 mg of Abilify® (aripiprazole) was tested for compliance over 5 days (Table 14). […] Without OPC3373, only 24% were determined to be positive with patients just being below the reporting cutoffs for both aripiprazole and dehydroaripiprazole. Thus, use of OPC3373 as a urine biomarker at this lower dose makes compliance monitoring for Abilify® possible. […] However, OPC3373 in subject M confirmed the subject's adherence to aripirazole therapy despite the low observed creatinine level.

[7] = Urine testing for compliance over 5 days, patients prescribed 20 mg/day Abilify (Example 4); assay type: in vivo, human; details: n 66 samples
Method: as §1
The urine of 22 patients who were prescribed 20 mg of Ability (e.g., aripiprazole) was tested for compliance over 5 days (Table 5). […] Without OPC3373, only 85% were determined to be positive with patients just being below the reporting cutoffs for both aripiprazole and dehydroaripiprazole. Thus, use of OPC3373 as a urine biomarker even at this relatively high dose adds value to compliance monitoring for Abilify®.

[8] = Urine testing for compliance over 5 days, patients prescribed 10 mg/day Abilify (Example 6); assay type: in vivo, human; details: n 111 samples
Method: as §1
The urine of 37 patients who were prescribed 10 mg of Abilify® (aripiprazole) was tested for compliance over 5 days (Table 9). […] Without OPC3373, only 61% were determined to be positive with patients just being below the reporting cutoffs for both aripiprazole and dehydroaripiprazole. Thus, use of OPC3373 as a urine biomarker at this dose adds value to compliance monitoring for Abilify®.

[9] = Urine testing for compliance over 5 days, patients prescribed 30 mg/day Abilify (Example 3); assay type: in vivo, human; details: for urine concentration: 30 mg/day Abilify, individual subjects
Method: as §1
The urine of 5 patients who were prescribed 30 mg of Abilify® (aripiprazole) was tested for compliance over 5 days (Table 3). […] Without OPC3373, only 93% were determined to be positive with one patient either having stopped taking their medicine between day 4 and 5 or just being below the reporting cutoffs for both aripiprazole and dehydroaripiprazole. Thus, use of OPC3373 as a urine biomarker even at this relatively high dose adds value to compliance monitoring for Abilify®.

[10] = Day 1, subjects A-O (one value per subject)
[11] = Day 4, subjects A-O (one value per subject)
[12] = Day 5, subjects A-O (one value per subject)

O=C1CCc2ccc(OCCCCN3CCN(c4cccc(Cl)c4Cl)CC3)cc2N1 [Aripiprazole]
Levels in Human Urine [1]: 9.5 ng/mL and <5.0 ng/mL (9×) and 32.4 ng/mL and 9.7 ng/mL and 53.3 ng/mL and 84.9 ng/mL and 38.7 ng/mL and 10 ng/mL and 0.0 ng/mL (2×) and 17.4 ng/mL and 17.9 ng/mL and 5.0 ng/mL and 39.5 ng/mL
Range of levels in Human Urine ([1]; over 22 specimens, * below LOQ): 5 to 100 ng/mL
Aripiprazole (urine test result) ([2]; Day 1): 10.1 and 0 (13×) and 9 and 7.5 and 5.0 and 9.7 and 8.5 and 8.8 and 8.4 and 13.1 and 6.4 and 38.4 and 5.4
Aripiprazole (urine test result) ([2]; Day 4): 21.5 and 11.3 and 6.6 (2×) and 0.0 (2×) and 5.2 and 0 (9×) and 32.4 and 13.1 and 15.6 and 6.5 and 10.3 and 7.5 and 5.5 and 9.5 and 11.8
Aripiprazole (urine test result) ([2]; Day 5): 10.2 and 5.1 and 7.3 and 0 (15×) and 14.9 and 0.0 and 5.3 and 10.1 and 12.7 and 9.7 and 31.6
urine concentration ([3]; Day 1, individual subjects): 52.2 and 0 (6×) and 5.3 and 15.1 and 31.2 and 15.4 and 17.9 and 20.0 and 31.5 and 9.8 and 8.9 and 17.5 and 15.0 and 10.1 and 5.4 and 19.4 and 27.6 and 14.6
urine concentration ([3]; Day 4, individual subjects): 31.7 and 19.5 and 39.3 and 10.2 and 8.9 and 12.3 and 0 (8×) and 40 and 26.7 and 45.3 and 14.5 and 6.2 and 5.7 and 7.9 and 62.3 and 19.0
urine concentration ([3]; Day 5, individual subjects): 22.8 and 0 (5×) and 16.4 and 9.3 and 6.9 and 32.1 and 37.1 and 16.7 and 7.4 and 57.3 and 12.3 and 14.2 (2×) and 7.5 and 17.7 and 25.3 and 5.1 and 76.7 and 9.6
urine concentration, Avg [3]: 15.29
urine concentration, Max [3]: 76.70
urine concentration, Min [3]: 0.00
oral dose excreted as unchanged aripiprazole in faeces ([4]; faeces, humans): 8-18%
time of dosing until steady state serum concentrations are achieved ([4]; in vivo): two
share of a dose represented in plasma [4]: 57%
oral dose excreted as unchanged aripiprazole in urine ([4]; urine, humans): Less than 1%
Abilify Urine Results [5]: 0 ng/mL and 11.1 ng/mL and 22.3 ng/mL and 9.4 ng/mL and 19.4 ng/mL and 11.6 ng/mL
Urine concentration, individual subject [6, 10]: 9.0 and 0 (6×) and 7.9
Urine concentration, individual subject [6, 11]: 0
Urine concentration, individual subject [6, 12]: 10.5 and 0 (4×) and 30.9 and 6.1

O=c1ccc2ccc(OCCCCN3CCN(c4cccc(Cl)c4Cl)CC3)cc2[nH]1 [Dehydroaripiprazole, dehydroaripiprazole]
Levels in Human Urine [1]: <5.0 ng/mL (7×) and 5.1 ng/mL (2×) and 14.1 ng/mL and 0.0 ng/mL (5×) and 17.8 ng/mL and 20.1 ng/mL and 5.9 ng/mL and 0 ng/mL and 15.8 ng/mL and 8.8 ng/mL and 56.1 ng/mL
Range of levels in Human Urine ([1]; over 22 specimens, * below LOQ): 5 to 75 ng/mL
Urine drug/metabolite concentration, Extremes ([2]; 5 mg/day Abilify, Day 1): 0-6.5
Urine drug/metabolite concentration, Mean +/- SD ([2]; 5 mg/day Abilify, Day 1): 2.3 +/− 3.2
Urine drug/metabolite concentration, Median ([2]; 5 mg/day Abilify, Day 1): 0
Urine drug/metabolite concentration, Extremes ([2]; 5 mg/day Abilify, Day 4): 0-6.1
Urine drug/metabolite concentration, Median ([2]; 5 mg/day Abilify, Day 4): 0
Urine drug/metabolite concentration, Extremes ([2]; 5 mg/day Abilify, Day 5): 0-8.2
Urine drug/metabolite concentration, Median ([2]; 5 mg/day Abilify, Day 5): 0
urine concentration, Avg ([2]; 5 mg/day Abilify, n 75 samples): 1.96
urine concentration, Max ([2]; 5 mg/day Abilify, n 75 samples): 17.1
urine concentration, Min ([2]; 5 mg/day Abilify, n 75 samples): 0
Dehydroaripiprazole (urine test result) ([2]; Day 1): 6.6 and 0 (20×) and 5.1 and 7.4 and 5.3 and 8.7
Dehydroaripiprazole (urine test result) ([2]; Day 4): 10.2 and 0 (19×) and 17.1 and 8.0 and 7.5 and 7.4 and 8.4
Dehydroaripiprazole (urine test result) ([2]; Day 5): 5.7 and 0 (19×) and 5.2 and 5.5 and 15.8 and 8.2 and 15.1
urine concentration ([3]; Day 1, individual subjects): 27.9 and 0 (6×) and 21 and 10.1 and 5.9 and 11.4 (2×) and 12.8 and 25.4 and 12.3 and 6.7 and 6.1 and 5.5 and 9.6 and 5.2 and 5.1 and 14.6 and 6.6
urine concentration ([3]; Day 4, individual subjects): 16.8 and 7.4 and 20.7 and 7.5 and 0 (11×) and 24 and 21.0 and 10.1 and 25.8 and 8.6 and 8.1 and 14.3 and 8.0
urine concentration ([3]; Day 5, individual subjects): 12.8 and 0 (9×) and 5.2 and 17.0 and 24.1 (2×) and 23.1 and 23.9 and 33.3 and 12.3 and 6.5 and 11.2 and 16.6 and 0.0 and 24.9
urine concentration, Avg [3]: 8.76
urine concentration, Max [3]: 33.30
urine concentration, Min [3]: 0.00
urine concentration, Avg [7]: 12.30
urine concentration, Max [7]: 91.40
urine concentration, Min [7]: 0.00
urine concentration, Max [8]: 64.8
urine concentration, Min [8]: 0
urine concentration, avg [8]: 6.27
urine concentration ([9]; Day 1): 11.5 and 29.2 and 6.8 and 56.9 and 14.1
urine concentration ([9]; Day 4): 14.1 and 84.8 and 11.0 and 36.3 and 16.6
urine concentration ([9]; Day 5): 0 and 17.0 and 8.9 and 89.7 and 28.1
urine concentration, Avg ([9]; 30 mg/day, n 15 samples): 28.33 ng/mL
urine concentration, Max ([9]; 30 mg/day, n 15 samples): 89.70 ng/mL
urine concentration, Min ([9]; 30 mg/day, n 15 samples): 0.00 ng/mL
share of a dose represented in plasma [4]: 20%
Abilify Urine Results [5]: 0 ng/mL (3×) and 6.5 ng/mL and 5.2 ng/mL and 6.4 ng/mL
Urine drug/metabolite concentration, Extremes ([6]; Day 1): 0-7.4
Urine drug/metabolite concentration, Mean +/- SD ([6]; Day 1): 0.5 +/− 1.9
Urine drug/metabolite concentration, Median ([6]; Day 1): 0
Urine concentration, individual subject [6, 10]: 0
Urine drug/metabolite concentration, Extremes ([6]; Day 4): 0-0
Urine drug/metabolite concentration, Mean +/- SD ([6]; Day 4): 0 +/− 0
Urine drug/metabolite concentration, Median ([6]; Day 4): 0
Urine concentration, individual subject [6, 11]: 0
Urine drug/metabolite concentration, Extremes ([6]; Day 5): 0-0
Urine drug/metabolite concentration, Mean +/- SD ([6]; Day 5): 0 +/− 0
Urine drug/metabolite concentration, Median ([6]; Day 5): 0
Urine concentration, individual subject [6, 12]: 0 (13×) and 10.7 and 0.0
urine concentration, Avg ([6]; n 45 samples): 0.24
urine concentration, Max ([6]; n 45 samples): 10.7
urine concentration, Min ([6]; n 45 samples): 0

O=C(O)CCCOc1ccc2c(c1)NC(=O)CC2 [OPC3373, 4-[(2-Oxo-1,2,3,4-tetrahydro-7-quinolinyl)oxy]butanoic acid]
Range of levels in Human Urine ([1]; human, in vivo): 10*-1500 ng/mL
share of a dose represented in plasma [4]: 2%
recovered from a dose as urinary metabolite ([4]; urine, reported by Baselt): 19%
